Experimental data from patent publication US11098061B2 (Celgene CAR LLC, priority 2013, dated 2021).

Assays:
[1] = target: p38a activated, mitogen-activated protein kinase-activated protein kinase 2 (MAPKAP-K2 or MK-2) enzyme (Homo sapiens (Human), UniProt P49137); experiment: MK2 Omnia continuous-read kinase assay for compound potency; format: biochemical; conditions: [MK-2]=0.4 nM, [ATP]=1.0 mM, [ST3-Sox]=10 μM
From the text: The protocol below describes a continuous-read kinase assay optimized to measure potency of compounds against p38a activated, mitogen-activated protein kinase-activated protein kinase 2 (MAPKAP-K2 or MK-2) enzyme. The mechanics of the assay platform are best described by the vendor (Invitrogen, Carlsbad, Calif.) on their website at the following URL: invitrogen.com/search/global/searchAction. action?resultPage=1 &resultsPerPage=15 &query=om nia&personaFilterTerm=Support+%26+Troubleshoot
Kinase reactions were started with the addition of 40 μL of MK-2 enzyme and monitored every 71 seconds for 30-240 minutes at λex360/λem485 in a Synergy^2, Synergy^4 or Synergy H^4 plate reader from BioTek (Winooski, Vt.). […] Initial velocity (0 minutes to +30 minutes) from each reaction was estimated from the slope of a plot of relative fluorescence units vs time (minutes) and normalized to the no enzyme and no inhibitor control groups for % Inhibition. The resulting % Inhibition values were then plotted against inhibitor concentration to estimate IC50 from log[Inhibitor] vs Response, Variable Slope model in GraphPad Prism from GraphPad Software (San Diego, Calif.).
[MK-2]=0.4 nM, [ATP]=1.0 mM and [ST3-Sox]=10 μM (ATP ^appKM=8-10 μM)

MK2 = MK2 (Homo sapiens (Human), UniProt P49137); experiment: MK2 modification assessment by whole protein mass spectrometry; format: binding; conditions: intact MK2, 60 min, 10-fold excess of compound to protein
Experimental: Modification of MK2 is measured by whole protein MS analysis. […] 5 μL aliquots of the samples were diluted with 15 μL of 0.2% TFA prior to micro C4 ZipTipping directly onto the MALDI target using sinapinic acid as the desorption matrix (10 mg/ml in 0.1% TFA:Acetonitrile 50:50). Analysis was performed on a AB Sciex 4800 MALDI TOF/TOF retro fitted with an HM2 detector (CovalX). Percent modification of target MK2 (i.e., the percent of total MK2 modified by the test compound) for each compound was calculated by subtracting the centroid mass of the compound treated MK2 from the centroid mass of the control MK2 and dividing that value with the mass of the compound.

p38a activated, mitogen-activated protein kinase-activated protein kinase 2 (MAPKAP-K2 or MK-2) enzyme, sequence (P49137 whole entry): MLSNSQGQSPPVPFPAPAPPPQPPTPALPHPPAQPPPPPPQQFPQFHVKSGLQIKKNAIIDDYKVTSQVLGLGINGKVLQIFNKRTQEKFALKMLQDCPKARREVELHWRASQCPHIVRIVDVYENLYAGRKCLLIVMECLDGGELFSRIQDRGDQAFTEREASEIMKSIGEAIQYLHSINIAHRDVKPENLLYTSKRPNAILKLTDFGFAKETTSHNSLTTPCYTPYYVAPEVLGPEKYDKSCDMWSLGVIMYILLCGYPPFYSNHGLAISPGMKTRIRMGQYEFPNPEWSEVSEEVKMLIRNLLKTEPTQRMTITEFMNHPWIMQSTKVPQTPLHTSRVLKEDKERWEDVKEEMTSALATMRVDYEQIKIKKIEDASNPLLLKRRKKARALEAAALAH
MK2, sequence (P49137 whole entry): as above

With `C=CC(=O)Nc1cccc2oc(-c3ccc4cc5n(c4c3)CCNC5=O)nc12` [Compound V-31, N-(2-(1-oxo-1,2,3,4-tetrahydropyrazino[1,2-a]indol-7-yl)benzo[d]oxazol-4-yl)acrylamide] the IC50 [1] was 501 to 999 nM and the “MK2 Mass Mod” value (MK2) was “E (mass modification of ≥70%)”.

With `CN(C)C/C=C/C(=O)N1CCOc2ccc(NC(=O)c3ccc4cc5n(c4c3)CCNC5=O)cc21` [Compound V-4, (E)-N-(4-(4-(dimethylamino)but-2-enoyl)-3,4-dihydro-2H-benzo[b][1,4]oxazin-6-yl)-1-oxo-1,2,3,4-tetrahydropyrazino[1,2-a]indole-7-carboxamide] the IC50 [1] was over 1000 nM and the “MK2 Mass Mod” value (MK2) was “G (mass modification ≤30%)”.

`CC(C)=CC(=O)COc1cc(NC(=O)c2ccc3sc4c(c3c2)NC[C@@H](C)NC4=O)ccc1F` [III-2, (R)—N-(4-fluoro-3-((4-methyl-2-oxopent-3-en-1-yl)oxy)phenyl)-3-methyl-5-oxo-2,3,4,5-tetrahydro-1H-benzo[4,5]thieno[3,2-e][1,4]diazepine-9-carboxamide] was tested, and the IC50 [1] was over 1000 nM and the “MK2 Mass Mod” value (MK2) was “G (mass modification ≤30%)”.

With `C=CC(=O)Nc1cc(C(=O)Nc2cc(-c3cc4c([nH]3)C3(CCCNC3)CNC4=O)ccn2)ccc1F` (racemic) [Compound I-24, 3-acrylamido-4-fluoro-N-(4-(4′-oxo-1′,4′,5′,6′-tetrahydrospiro[piperidine-3,7′-pyrrolo[3,2-c]pyridin]-2′-yl)pyridin-2-yl)benzamide] the IC50 [1] was 101 to 500 nM and the “MK2 Mass Mod” value (MK2) was “F (mass modification of 31-69%)”.

For `C=CC(=O)Nc1cc(NC(=O)c2ccc3cc4n(c3c2)C2(CCC2)CNC4=O)ccc1C` [Compound V-53, N-(3-acrylamido-4-methylphenyl)-1′-oxo-2′,3′-dihydro-1′H-spiro[cyclobutane-1,4′-pyrazino[1,2-a]indole]-7′-carboxamide], the IC50 [1] was over 1000 nM and the “MK2 Mass Mod” value (MK2) was “E (mass modification of ≥70%)”.

In the case of `C=CC(=O)NCc1csc(NC(=O)c2ccc3cc4n(c3c2)C2(CCC2)CNC4=O)n1` [Compound V-43, N-(4-(acrylamidomethyl)thiazol-2-yl)-1′-oxo-2′,3′-dihydro-1′H-spiro[cyclobutane-1,4′-pyrazino[1,2-a]indole]-7′-carboxamide], the IC50 [1] is reported as over 1000 nM and the “MK2 Mass Mod” value (MK2) is reported as “G (mass modification ≤30%)”.

`C=CC(=O)N[C@H]1CCCC[C@H]1NC(=O)c1ccc2cc3n(c2c1)C1(CCC1)CNC3=O` (racemic) [Compound V-46, Cis-N-(2-acrylamidocyclohexyl)-1′-oxo-2′,3′-dihydro-1′H-spiro[cyclobutane-1,4′-pyrazino[1,2-a]indole]-7′-carboxamide (racemic)] was tested, and the IC50 [1] was over 1000 nM and the “MK2 Mass Mod” value (MK2) was “G (mass modification ≤30%)”.

With `C=CC(=O)N[C@H]1COC[C@H]1NC(=O)c1ccc2cc3n(c2c1)C1(CCC1)CNC3=O` (racemic) [Compound V-49, Cis-N-(4-acrylamidotetrahydrofuran-3-yl)-1′-oxo-2′,3′-dihydro-1′H-spiro[cyclobutane-1,4′-pyrazino[1,2-a]indole]-7′-carboxamide (racemic)] the IC50 [1] was over 1000 nM and the “MK2 Mass Mod” value (MK2) was “G (mass modification ≤30%)”.

With `C=CC(=O)Nc1cc(-c2cc(-c3cc4c(s3)C(=O)N[C@H](C)CN4)ccn2)ccc1OCCOC` [III-d-1, (R)—N-(2-(2-methoxyethoxy)-5-(4-(3-methyl-5-oxo-2,3,4,5-tetrahydro-1H-thieno[3,2-e][1,4]diazepin-7-yl)pyridin-2-yl)phenyl)acrylamide] the IC50 [1] was over 1000 nM and the “MK2 Mass Mod” value (MK2) was “E (mass modification of ≥70%)”.

`C=CC(=O)NC1CN(C)CC1NC(=O)c1ccc2sc3c(c2c1)NC[C@@H](C)NC3=O` (stereo partly shown) [III-50] was tested, and the IC50 [1] was under 100 nM and the “MK2 Mass Mod” value (MK2) was “G (mass modification ≤30%)”.

`C=CC(=O)N1CCOc2ncc(-c3ncc4c(n3)-c3[nH]c5c(c3CC4)C(=O)NCC5)cc21` [II-17, 2-(1-acryloyl-2,3-dihydro-1H-pyrido[2,3-b][1,4]oxazin-7-yl)-8,9,10,11-tetrahydro-SH-pyrido[3′,4′:4,5]pyrrolo[3,2-h]quinazolin-7(6H)-one] was tested, and the IC50 [1] was under 100 nM and the “MK2 Mass Mod” value (MK2) was “E (mass modification of ≥70%)”.

For `C=CC(=O)Nc1cc(NC(=O)c2ccc3sc4c(c3c2)NC[C@@H](C)NC4=O)ccc1C(F)(F)F` [III-57, (R)—N-(3-acrylamido-4-(trifluoromethyl)phenyl)-3-methyl-5-oxo-2,3,4,5-tetrahydro-1H-benzo[4,5]thieno[3,2-e][1,4]diazepine-9-carboxamide], the IC50 [1] was 501 to 999 nM and the “MK2 Mass Mod” value (MK2) was “G (mass modification ≤30%)”.

`C=CC(=O)Nc1cc(-c2cc3c(cn2)CCc2c4c(n(C)c2-3)CC2(CC2)NC4=O)ccc1OCCOC` [II-7, N-(2-(2-methoxyethoxy)-5-(11′-methyl-7′-oxo-5′,6′,7′,8′,10′,11′-hexahydrospiro[cyclopropane-1,9′-pyrido[3′,4′:4,5]pyrrolo[2,3-f]isoquinolin]-2′-yl)phenyl)acrylamide] was tested, and the IC50 [1] was 101 to 500 nM and the “MK2 Mass Mod” value (MK2) was “E (mass modification of ≥70%)”.

In the case of `C=CC(=O)N1CCOc2ccc(-c3ncc4c(n3)-c3[nH]c5c(c3CC4)C(=O)NCC5)cc21` [II-24, 2-(4-acryloyl-3,4-dihydro-2H-benzo[b][1,4]oxazin-6-yl)-8,9,10,11-tetrahydro-SH-pyrido[3′,4′:4,5]pyrrolo[3,2-h]i quinazolin-7(6H)-one], the IC50 [1] is reported as under 100 nM and the “MK2 Mass Mod” value (MK2) is reported as “E (mass modification of ≥70%)”.

`C=CC(=O)Nc1c(C)c(NC2CCCNC2)nc2ccnn12` (stereo not shown) [IV-b-1, N-(6-methyl-5-(piperidin-3-ylamino)pyrazolo [1,5-a]pyrimidin-7-yl)acrylamide] gave an IC50 [1] of 101 to 500 nM.

In the case of `C=CC(=O)Nc1cc(-c2cc(-c3cc4n(c3)CCNC4=O)ccn2)ccc1OC` [V-c-1, N-(2-methoxy-5-(4-(1-oxo-1,2,3,4-tetrahydropyrrolo[1,2-a]pyrazin-7-yl)pyridin-2-yl)phenyl)acrylamide], the “MK2 Mass Mod” value (MK2) is reported as “F (mass modification of 31-69%)”.

For `C=CC(=O)Nc1cc(-c2cc3c(cn2)CCc2c-3[nH]c3c2C(=O)NCC3)ccc1OCCCNC(=O)CCCC(=O)NCCCOCCOCCOCCCNC(=O)CCCC[C@H]1SC[C@H]2NC(=O)N[C@H]21` [Probe 1], the IC50 [1] was under 100 nM.

For `C=CC(=O)Nc1cc(-c2cc3c(cn2)CCc2c-3[nH]c3c2C(=O)NCC3)ccc1OCCCNC(=O)CCCC(=O)NCCCOCCOCCOCCCNC(=O)CCCC[C@H]1SC[C@H]2NC(=O)N[C@H]21` [Probe 2, N1-(3-(2-acrylamido-4-(7-oxo-6,7,8,9,10,11-hexahydro-5H-pyrido[3′,4′:4,5]pyrrolo[2,3-f]isoquinolin-2-yl)phenoxy)propyl)-N5-(15-oxo-19-((3aR,4R,6aS)-2-oxohexahydro-1H-thieno[3,4-d]imidazol-4-yl)-4,7,10-trioxa-14-azanonadecyl)glutaramide], the IC50 [1] was under 100 nM.

For `C=CC(=O)NC1CCCCC1NC(=O)c1ccc2cc3n(c2c1)C1(CCC1)CNC3=O` (racemic) [Compound V-64, trans-(2-acrylamidocyclohexyl)-1′-oxo-2′,3′-dihydro-1′H-spiro[cyclobutane-1,4′-pyrazino[1,2-a]indole]-7′-carboxamide (racemic)], the IC50 [1] was over 1000 nM.

With `C=CC(=O)Nc1c(C)ccc2oc(-c3ccc4cc5n(c4c3)C3(CCC3)CNC5=O)nc12` [Compound V-12, N-(5-methyl-2-(1′-oxo-2′,3′-dihydro-1′H-spiro[cyclobutane-1,4′-pyrazino [1,2-a]indol]-7′-yl)benzo[d]oxazol-4-yl)acrylamide] the IC50 [1] was over 1000 nM.
